Here are results for 27 compounds from US10111874B2, “Combination therapies for treatment of cancer” (Araxes Pharma LLC, priority 2014, dated 2018).

This assay addresses T1, KRAS G12C 1-169, his-tagged protein, GDP-loaded (Homo sapiens, UniProt P01116, G12C).
T1 construct: KRAS G12C 1-169, his-tagged protein, GDP-loaded
The assay can be described thus: Biochemical assay: covalent binding to KRAS G12C analyzed by mass spectrometry. As to the method: Compounds were tested for activity as follows:
Compounds were diluted to 50× final test concentration in DMSO in 96-well storage plates. […] Reactions were mixed carefully and thoroughly by pipetting up/down with a 200 μl multi-channel pipettor. […] 5 μl of 2% formic acid (Fisher cat#A117) in DI H2O was then added to each well followed by mixing with a pipette. The plate was then resealed with aluminum seal and stored on dry ice until analyzed as described below.
The above described assays were analyzed by mass spectrometry according to the following procedure:
The MS instrument is set to positive polarity, 2 GHz resolution, and low mass (1700) mode and allowed to equilibrate for 30 minutes. The instrument is then calibrated, switched to acquisition mode and the appropriate method loaded.
After another 30 minute equilibration time, a blank batch (i.e., buffer) is run to ensure equipment is operating properly. The samples are thawed at 37° C. for 10 minutes, briefly centrifuged, and transfer to the bench top. Wells A1 and H12 are spiked with 1 μL 500 μM internal standard peptide, and the plates centrifuged at 2000×g for 5 minutes. The method is then run and masses of each individual well recorded.
The masses (for which integration data is desired) for each well are pasted into the platemap and exported from the analysis. Masses for the internal standards are exported as well. The data at 50 ppm is extracted for the +19 charge state, and identity of well A1 is assigned using the internal standard spike and integrated. Peak data is exported as a TOF list and the above steps are repeated individually, for the +20, 21, 22, 23, 24, and 25 charge states.

[1] abbreviates: compounds 48-246, measured at 2 h.
Where [2] appears, read: compounds 1-47, measured at 24 h.
Where [3] appears, read: compounds 247-342, measured at 30 min.

SMILES strings stand for the structures.

T1 sequence (P01116 1-169 isoform P01116-2 G12C): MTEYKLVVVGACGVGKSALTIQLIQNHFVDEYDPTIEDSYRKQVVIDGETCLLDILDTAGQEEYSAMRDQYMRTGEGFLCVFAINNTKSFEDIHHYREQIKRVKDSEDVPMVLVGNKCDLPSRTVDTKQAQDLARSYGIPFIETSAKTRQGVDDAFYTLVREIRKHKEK

Regarding `C=CC(=O)N1CCN(c2ncnc3cc(-c4ccc(F)cc4F)c(Cl)cc23)CC1CC#N` (stereo not drawn) [Compound I-139, 2-(1-acryloyl-4-(6-chloro-7-(2,4-difluorophenyl)quinazolin-4-yl)piperazin-2-yl)acetonitrile], the Binding % result under setting [1] was “++++ (++++indicates binding activity greater than 75%)”.
In the case of `C=CC(=O)N1CCN(c2ncnc3cc(Cl)c(-c4ccncc4)cc23)CC1` [Compound I-17, 1-(4-(7-chloto-6-(pyridin-4-yl)quinazolin-4-yl)piperazin-1-yl)prop-2-en-1-one], the Binding % result under setting [2] is “+ (+indicates binding activity from 5% to 25%)”.
For the compound `C=CC(=O)N1CCN(c2c(C#N)cnc3cc(-c4cc(O)ccc4F)c(Cl)cc23)CC1` [Compound I-196, 4-(4-acryloylpiperazin-1-yl)-6-chloro-7-(2-fluoro-5-hydroxyphenyl)quinoline-3-carbonitrile], under setting [1], the Binding % result was “++++ (++++indicates binding activity greater than 75%)”.
For the compound `C=CC(=O)N1CC(N2CCN(C(=O)CNc3cc(C4CC4)c(Cl)cc3C#N)CC2)C1` [II-71, 2-((2-(4-(1-Acryloylazetidin-3-yl)piperazin-1-yl)-2-oxoethyl)amino)-5-chloro-4-cyclopropylbenzonitrile], the Binding % entry (determined at 2 hrs) is recorded as “+ (+indicates binding activity from 5% to 20%)”.
In the case of `C=CC(=O)N1CC(N2CCN(C(=O)CNc3cc(CC)c(Cl)cc3O)CC2)C1` [II-55, 1-(3-(4-(2-(4-chloro-5-ethyl-2-hydroxyphenylamino)acetyl)piperazin-1-yl)azetidin-1-yl)prop-2-en-1-one], under “determined at 2 hrs”, the Binding % result is listed as “++ (++indicates binding activity greater than 20%)”.
`C=CC(=O)N1CCN(c2ncnc3c(F)c(-c4cc(C(F)F)ccc4F)c(Cl)cc23)CC1` [Compound 307, 1-(4-(6-chloro-7-(5-(difluoromethyl)-2-fluorophenyl)-8-fluoroquinazolin-4-yl)piperazin-1-yl)prop-2-en-1-one]: the Binding % entry under setting [3] is “++ (++indicates binding activity greater than 25% and up to 50%)”.
Take `C=CC(=O)N1CC(N2CCN(C(=O)C(C)Nc3cc(C4CCC4)c(Cl)cc3O)CC2)C1` (stereo not drawn) [II-59, 1-(3-(4-(2-(4-chloro-5-cyclobutyl-2-hydroxyphenylamino)propanoyl)piperazin-1-yl)azetidin-1-yl)prop-2-en-1-one]: the Binding % entry (determined at 2 hrs) is “++ (++indicates binding activity greater than 20%)”.
With `C=CC(=O)N1CC(N2CCN(C(=O)CNc3ncc(Cl)s3)CC2)C1` [II-38, 1-(3-(4-(2-(5-chlorothiazol-2-ylamino)acetyl)piperazin-1-yl)azetidin-1-yl)prop-2-en-1-one], where the note is “determined at 24 hrs”, the Binding % entry was “+ (+indicates binding activity from 5% to 15%)”.
For `NC/C=C/C(=O)N1CCN(c2ncnc3c(F)c(-c4cc(O)cc5ccccc45)c(Cl)cc23)CC1` [Compound 335, (E)-4-amino-1-(4-(6-chloro-8-fluoro-7-(3-hydroxynaphthalen-1-yl)quinazolin-4-yl)piperazin-1-yl)but-2-en-1-one], the Binding % entry under setting [3] was “++++ (++++indicates binding activity greater than 75%)”.
Turning to `C=CC(=O)N1CC(N2CCN(C(=O)CCn3c(=O)[nH]c4cc(Cl)c(Cl)cc43)CC2)C1` [II-21, 1-(3-(4-(1-acryloylazetidin-3-yl)piperazin-1-yl)-3-oxopropyl)-5,6-dichloro-1H-benzo[d]imidazol-2(3H)-one], the Binding % entry (determined at 24 hrs) was “+ (+indicates binding activity from 5% to 15%)”.
On to `C=CC(=O)N1CCN(c2c(C#N)cnc3c(F)c(-c4c(C)ccc5[nH]ncc45)c(Cl)cc23)CC1` [Compound I-293, 4-(4-acryloylpiperazin-1-yl)-6-chloro-8-fluoro-7-(5-methyl-1H-indazol-4-yl)quinoline-3-carbonitrile], for which the Binding % entry under setting [3] was “++++ (++++indicates binding activity greater than 75%)”.
Turning to `C=CC(=O)N1CC(N2CCN(C(=O)c3cc(C4CC4)c(Cl)cc3OC)CC2)C1` [II-47, 1-(3-(4-(4-chloro-5-cyclopropyl-2-methoxybenzoyl)-piperazin-1-yl)azetidin-1-yl)prop-2-en-1-one], for the setting “determined at 24 hrs”, the Binding % result is recorded as “+ (+indicates binding activity from 5% to 15%)”.
For the compound `C=CC(=O)N1CC(N2CCN(c3cc(-c4cc(CC)c(Cl)cc4O)n[nH]3)CC2)C1` [II-72, 1-(3-(4-(3-(4-chloro-5-ethyl-2-hydroxyphenyl)-1H-pyrazol-5-yl)piperazin-1-yl)azetidin-1-yl)prop-2-en-1-one], the Binding % result (determined at 2 hrs) is “+ (+indicates binding activity from 5% to 20%)”.
Consider `C=CC(=O)N1CCN(c2ncnc3cc(-c4ccnc5ccccc45)c(Cl)cc23)CC1` [Compound I-214, 1-(4-(6-chloro-7-(quinolin-4-yl)quinazolin-4-yl)piperazin-1-yl)prop-2-en-1-one], for which the Binding % entry under setting [1] is on record as “+ (+indicates binding activity from 5% to 25%)”.
In the case of `C=CC(=O)N1CCN(c2ncnc3cc(-c4c(Cl)ccc5[nH]ncc45)c(Cl)cc23)CC1` [Compound I-266, 1-(4-(6-chloro-7-(5-chloro-1H-indazol-4-yl)quinazolin-4-yl)piperazin-1-yl)prop-2-en-1-one], the Binding % entry under setting [3] was “+++ (+++indicates binding activity greater than 50% and up to 75%)”.
As for `C=CC(=O)N1CCN(c2c(C#N)cnc3cc(-c4ccccc4C(F)(F)F)c(Cl)cc23)CC1` [Compound I-173, 4-(4-acryloylpiperazin-1-yl)-6-chloro-7-(2-(trifluoromethyl)phenyl) quinoline-3-carbonitrile], under setting [1], the Binding % result was “++++ (++++indicates binding activity greater than 75%)”.
As for `N#C/C(=C\c1ccccn1)C(=O)N1CCN(c2ncnc3c(F)c(-c4c(O)cccc4F)c(Cl)cc23)CC1` [Compound I-284, (E)-2-(4-(6-chloro-8-fluoro-7-(2-fluoro-6-hydroxyphenyl)quinazolin-4-yl)piperazine-1-carbonyl)-3-(pyridin-2-yl)acrylonitrile], the Binding % result under setting [3] is “++++ (++++indicates binding activity greater than 75%)”.
As to `CN(C)C/C=C/C(=O)N1CCN(c2ncnc3cc(Cl)c(-c4ccccc4Cl)cc23)CC1` [Compound I-25, (E)-1-(4-(7-chloro-6-(2-chlorophenyl)quinazolin-4-yl)piperazin-1-yl)-4-(dimethylamino)but-2-en-1-one], under setting [2], the Binding % result was “++ (++indicates binding activity greater than 25% and up to 50%)”.
Turning to `C=CC(=O)N1CCN(c2ncnc3c(OC)c(-c4ccc(F)cc4F)c(Cl)cc23)CC1` [Compound 306, 1-(4-(6-chloro-7-(2,4-difluorophenyl)-8-methoxyquinazolin-4-yl)piperazin-1-yl)prop-2-en-1-one], the Binding % entry under setting [3] was “++ (++indicates binding activity greater than 25% and up to 50%)”.
With `C=CC(=O)N1CC(N2CCN(C(=O)CNc3cc(C4CC4)c(Cl)cc3O)C[C@H]2CO)C1` [II-63, (S)-1-(3-(4-(2-(4-chloro-5-cyclopropyl-2-hydroxyphenyl-amino)acetyl)-2-(hydroxymethyl)-piperazin-1-yl)azetidin-1-yl)prop-2-en-1-one], the Binding % entry (determined at 2 hrs) was “++ (++indicates binding activity greater than 20%)”.
Regarding `C=CC(=O)N1CCN(c2ncnc3c(O)c(-c4ccc(F)cc4F)c(Cl)cc23)CC1` [Compound 321, 1-(4-(6-chloro-7-(2,4-difluorophenyl)-8-hydroxyquinazolin-4-yl)piperazin-1-yl)prop-2-en-1-one], under setting [3], the Binding % result is on record as “+ (+indicates binding activity from 5% to 25%)”.
Consider `C=CC(=O)N1CCN(c2ncnc3cc(-c4c(O)cccc4F)c(C(F)(F)F)cc23)CC1` [Compound I-208, 1-(4-(7-(2-fluoro-6-hydroxyphenyl)-6-(trifluoromethyl)quinazolin-4-yl)piperazin-1-yl)prop-2-en-1-one], for which the Binding % result under setting [1] is “++++ (++++indicates binding activity greater than 75%)”.
Consider `C=CC(=O)N1CCN(c2ncnc3cc(Cl)c(-c4ccccc4O)cc23)CC1` [Compound I-15, 1-(4-(7-chloro-6-(2-hydroxyphenyl)quinoazlin-4-yl)piperazin-1-yl)prop-2-en-1-one], for which the Binding % entry under setting [2] is “+++ (+++indicates binding activity greater than 50% and up to 75%)”.
In the case of `C=CC(=O)N1CC(N2CCN(C(=O)c3cc(-c4cc(Cl)ccc4Cl)c(Cl)cc3O)CC2)C1` [II-48, 1-(3-(4-(2′,5′,6-trichloro-4-hydroxybiphenyl-carbonyl)piperazin-1-yl)azetidin-1-yl)prop-2-en-1-one], the Binding % entry (determined at 24 hrs) is “++ (++indicates binding activity greater than 15% and up to 25%)”.
As to `C=CC(=O)N1CCN(C(=O)c2cc(Cl)c(-c3ccccc3)cc2O)CC1` [III-42, 1-(4-(2-Chloro-5-hydroxy-[1,1′-biphenyl]-4-carbonyl)piperazin-1-yl)prop-2-en-1-one], the Binding % entry (determined at 2 hrs) is reported as “+ (+indicates binding activity from 5% to 20%)”.
On to `C=CC(=O)N1CCC(N2CCN(C(=O)CNc3cc(C)c(Cl)cc3O)CC2)C1` (stereo not drawn) [II-7, 1-(3-(4-(2-(4-chloro-2-hydroxy-5-methylphenylamino)-acetyl)piperazin-1-yl)pyrrolidin-1-yl)prop-2-en-1-one], for which the Binding % entry (determined at 24 hrs) is “++ (++indicates binding activity greater than 15% and up to 25%)”.
As to `C=CC(=O)N1CCN(c2ncnc3cc(Cl)c(-c4ccc(Cl)cc4Cl)cc23)CC1` [Compound I-6, 1-(4-(7-chloro-6-(2,4-dichlorophenyl)quinazolin-4-yl)piperazin-1-yl)prop-2-en-1-one], the Binding % result under setting [2] was “+++ (+++indicates binding activity greater than 50% and up to 75%)”.
